Among the data in patent US20130029942A1, “COMPOUNDS AND THERAPEUTICAL USES THEREOF” (Myrexis, Inc., priority 2003, published 2013) are EC50 values, retold here.

The structures appear in SMILES notation. Some results are limits rather than exact numbers.

The subject of one test is T-47D cells. In words: Caspase cascade activation / induction of apoptosis in T-47D cells (fluorogenic N-(Ac-DEVD)-N'-ethoxycarbonyl-R110 substrate). Conditions: Homo sapiens, T47D; T-47D, 24 hr; read-out: T-47D (24 hr) EC50. In kind it is cell-based, human.
In the case of `COc1ccc(N(C)c2nc(NCCc3c[nH]cn3)nc3ccccc23)cc1` [Example 46, N^2-[2-(1H-Imidazol-4-yl)-ethyl]-N^4-(4-methoxy-phenyl)-N^4-methyl-quinazoline-2,4-diamine], the EC50 (as a rule, the concentration giving half of the maximal effect) is 2180 nM.

Regarding `COc1ccc(N(C)c2nc(N)nc3ccccc23)cn1` [Example 49, N^4-(6-methoxypyridin-3-yl)-N^4-methyl-quinazoline-2,4-diamine], the EC50 was determined as 29 nM.

Turning to `COc1ccc(N(C)c2ccnc3ccccc23)cc1` [Example 66, (4-Methoxy-phenyl)-methyl-(quinolin-4-yl)-amine], the 50% effective concentration (EC50) stood at 18 nM.

With `COc1ccc(N(C)c2nc(CCl)nc3ccccc23)cc1` [Example 73, (2-Chloromethyl-quinazolin-4-yl)-(4-methoxy-phenyl)-methyl-amine], the EC50 came to 679 nM.

Regarding `COc1ccc(N(C)c2nc(CO)nc3ccccc23)cc1` [Example 76], the EC50 worked out at 7 nM.

For the molecule `COc1ccc(N(C)c2nc(CN(C)C)nc3ccccc23)cc1` [Example 77, (2-Dimethylaminomethyl-quinazolin-4-yl)-(4-methoxy-phenyl)-methyl-amine], the EC50 came to 700 nM.

As for `Cc1nc(Nc2ccc(OC(F)F)cc2)c2ccccc2n1` [Example 78, (4-Difluoromethoxy-phenyl)-(2-methyl-quinazolin-4-yl)-amine], the concentration giving a half-maximal response (EC50) is over 10000 nM.

As to `COc1ccc(Nc2nc(C)nc3ccccc23)cc1F` [Example 79, (3-Fluoro-4-methoxy-phenyl)-(2-methyl-quinazolin-4-yl)-amine], the EC50 was over 10000 nM.

As to `Cc1nc(Nc2ccc(OC(C)C)cc2)c2ccccc2n1` [Example 80, (4-Isopropoxy-phenyl)-(2-methyl-quinazolin-4-yl)-amine], the EC50 amounted to 5750 nM.

As for `CCc1ccc(Nc2nc(C)nc3ccccc23)cc1` [Example 81, (4-Ethyl-phenyl)-(2-methyl-quinazolin-4-yl)-amine], the 50% effective concentration (EC50) is over 10000 nM.

`COc1cc(OC)c(Nc2nc(C)nc3ccccc23)c(OC)c1` [Example 82, (2-Methyl-quinazolin-4-yl)-(2,4,6-trimethoxy-phenyl)-amine]: the concentration giving a half-maximal response (EC50) was over 10000 nM.

Regarding `Cc1nc(N(C)c2ccc(OC(F)F)cc2)c2ccccc2n1` [Example 84, (4-Difluoromethoxy-phenyl)-(2-methyl-quinazolin-4-yl)-methyl-amine], the concentration giving a half-maximal response (EC50) was found to be 8 nM.

With `COc1ccc(N(C)c2nc(C)nc3ccccc23)cc1F` [Example 85, (3-Fluoro-4-methoxy-phenyl)-(2-methyl-quinazolin-4-yl)-methyl-amine], the concentration for a half-maximal effect (EC50) was determined as 2 nM.

With `Cc1nc(N(C)c2ccc(OC(C)C)cc2)c2ccccc2n1` [Example 86, (4-Isopropoxy-phenyl)-(2-methyl-quinazolin-4-yl)-methyl-amine], the half-maximal effective concentration (EC50) came out at 41 nM.

With `CCc1ccc(N(C)c2nc(C)nc3ccccc23)cc1` [Example 87, (4-Ethyl-phenyl)-(2-methyl-quinazolin-4-yl)-methyl-amine], the 50% effective concentration (EC50) came to 25 nM.

As for `COc1cc(OC)c(N(C)c2nc(C)nc3ccccc23)c(OC)c1` [Example 88, (2-Methyl-quinazolin-4-yl)-(2,4,6-trimethoxy-phenyl)-methyl-amine], the EC50 was 556 nM.

Consider `COc1ccc(N(C)c2nc(Cl)nc3cccc(Cl)c23)cc1` [Example 90, (2,5-Dichloro-quinazolin-4-yl)-(4-methoxy-phenyl)-methyl-amine], for which the EC50 was 2 nM.

`COc1ccc(N(C)c2nc(C)nc3cccc(OC)c23)cc1` [Example 91, (5-Methoxy-2-methyl-quinazolin-4-yl)-(4-methoxy-phenyl)-methyl-amine]: the 50% effective concentration (EC50) was 4 nM.

For the molecule `COc1ccc(N(C)c2nc(C)nc3ncccc23)cc1` [Example 92, (4-Methoxy-phenyl)-(2-methyl-pyrido[2,3-d]pyrimidin-4-yl)-methyl-amine], the EC50 amounted to 16 nM.

As for `Cc1nc(N(C)c2ccc(O)cc2)c2ccccc2n1` [Example 93, (4-Hydroxy-phenyl)-(2-methyl-quinazolin-4-yl)-methyl-amine], the half-maximal effective concentration (EC50) was determined as 65 nM.

`COc1ccc(Nc2nc(C)nc3ccccc23)cn1` [Example 95, (2-Methyl-quinazolin-4-yl)-(6-methoxy-pyridin-3-yl)-amine]: the EC50 is over 10000 nM.

`COc1ccc(Nc2nc(C)nc3ccccc23)c(F)c1` [Example 96, (2-Fluoro-4-methoxy-phenyl)-(2-methyl-quinazolin-4-yl)-amine]: the concentration for a half-maximal effect (EC50) was over 10000 nM.

The same test, now with this note: Homo sapiens, T47D; T-47D, 48 hr; read-out: T-47D (48 hr) EC50.
For the molecule `COc1ccc(N(C)c2nc(NCCc3c[nH]cn3)nc3ccccc23)cc1` [Example 46, N^2-[2-(1H-Imidazol-4-yl)-ethyl]-N^4-(4-methoxy-phenyl)-N^4-methyl-quinazoline-2,4-diamine], the 50% effective concentration (EC50) turned out to be 2270 nM.

As to `COc1ccc(N(C)c2nc(NCCCN(C)C)nc3ccccc23)cc1` [Example 47, N^2-(3-Dimethylamino-propyl)-N^4-(4-methoxy-phenyl)-N^4-methyl-quinazoline-2,4-diamine], the EC50 was 187 nM.

As for `COc1ccc(N(C)c2nc(NCCO)nc3ccccc23)cn1` [Example 48, N^2-(2-Hydroxyethyl)-N^4-(6-methoxypyridin-3-yl)-N^4-methyl-quinazoline-2,4-diamine], the half-maximal effective concentration (EC50) is 137 nM.

In the case of `COc1ccc(N(C)c2nc(N)nc3ccccc23)cn1` [Example 49, N^4-(6-methoxypyridin-3-yl)-N^4-methyl-quinazoline-2,4-diamine], the EC50 was determined as 22 nM.

Consider `COc1ccc(N(C)c2nc(NCCO)nc3cc(OC)c(OC)cc23)cc1` [Example 50, N^2-(2-Hydroxyethyl)-N^4-(4-methoxy-phenyl)-N^4-methyl-6,7-dimethoxyquinazoline-2,4-diamine], for which the EC50 was over 10000 nM.

In the case of `COc1ccc(N(C)c2nc(Cl)nc3[nH]cnc23)cc1` [Example 51, (2-Chloro-9H-purin-6-yl)-(4-methoxy-phenyl)-methyl-amine], the EC50 was over 10000 nM.

With `COC(=O)c1ccc(N(C)c2nc(Cl)nc3ccccc23)cc1` [Example 52, (2-Chloro-quinazolin-4-yl)-(4-methylcarboxyphenyl)-methyl-amine], the EC50 was found to be 6 nM.

For the molecule `CN(c1ccc(O)cc1)c1nc(Cl)nc2ccccc12` [Example 54, (2-Chloro-quinazolin-4-yl)-(4-hydroxyphenyl)-methylamine], the half-maximal effective concentration (EC50) was 46 nM.

`COc1ccc(N(C)c2nc(CF)nc3ccccc23)cc1` [Example 55, (2-Fluoromethyl-quinazolin-4-yl)-(4-methoxy-phenyl)-methyl-amine]: the EC50 turned out to be 1 nM.

For the molecule `COc1ccc(N(C)c2nc(Cl)nc3ccc(C)cc23)cc1` [Example 56, (2-Chloro-6-methyl-quinazolin-4-yl)-(4-methoxy-phenyl)-methyl-amine], the EC50 is 5 nM.

Regarding `COc1ccc(N(C)c2nc(Cl)nc3cc(C)ccc23)cc1` [Example 57, (2-Chloro-7-methyl-quinazolin-4-yl)-(4-methoxy-phenyl)-methyl-amine], the EC50 stood at 432 nM.

For the molecule `COc1ccc(N(C)c2nc(Cl)nc3cccc(C)c23)cc1` [Example 58, (2-Chloro-5-methyl-quinazolin-4-yl)-(4-methoxy-phenyl)-methyl-amine], the EC50 was 1 nM.

As to `COc1ccc(N(C)c2nc(Cl)nc3c(C)cccc23)cc1` [Example 59, (2-Chloro-8-methyl-quinazolin-4-yl)-(4-methoxy-phenyl)-methyl-amine], the EC50 was 11 nM.

Regarding `COc1ccc(N(C)c2nc(Cl)nc3ccc(Cl)cc23)cc1` [Example 60, (2,6-Dichloro-quinazolin-4-yl)-(4-methoxy-phenyl)-methyl-amine], the EC50 amounted to 13 nM.

With `COc1ccc(N(C)c2nc(N(C)c3ccc(OC)cc3)c3cc(Cl)ccc3n2)cc1` [Example 61, 6-Chloro-N^2,N^4-bis-(4-methoxy-phenyl)-N^2,N^4-dimethyl-quinazoline-2,4-diamine], the 50% effective concentration (EC50) was 4050 nM.

Regarding `COc1ccc(N(C)c2nc(Cl)nc3cc(Cl)ccc23)cc1` [Example 62, (2,7-Dichloro-quinazolin-4-yl)-(4-methoxy-phenyl)-methyl-amine], the half-maximal effective concentration (EC50) amounted to 316 nM.

In the case of `COc1ccc(N(C)c2nc(N(C)c3ccc(OC)cc3)c3c(Cl)cccc3n2)cc1` [Example 63, 5-Chloro-N^2,N^4-bis-(4-methoxy-phenyl)-N^2,N^4-dimethyl-quinazoline-2,4-diamine], the 50% effective concentration (EC50) came out at 427 nM.

Take `COc1ccc(N(C)c2nc(OC(C)C)nc3cccc(Cl)c23)cc1` [Example 64, (5-Chloro-2-isopropoxy-quinazolin-4-yl)-(4-methoxy-phenyl)-methyl-amine]: the EC50 was over 10000 nM.

As to `COc1ccc(N(C)c2ccnc3ccccc23)cc1` [Example 66, (4-Methoxy-phenyl)-methyl-(quinolin-4-yl)-amine], the EC50 stood at 22 nM.

`CN(c1ccc2c(c1)OCO2)c1nc(Cl)nc2ccccc12` [Example 67, (2-Chloro-quinazolin-4-yl)-(3,4-methylenedioxyphenyl)-methyl-amine]: the EC50 was 38 nM.

For the molecule `COc1ccc(N(C)c2nc(Cl)nc3ccccc23)cc1OC` [Example 68, (2-Chloro-quinazolin-4-yl)-(3,4-dimethoxy-phenyl)-methyl-amine], the concentration for a half-maximal effect (EC50) came to 4 nM.

Regarding `CN(c1ccc(Oc2ccccc2)cc1)c1nc(Cl)nc2ccccc12` [Example 69, (2-Chloro-quinazolin-4-yl)-(4-phenoxy-phenyl)-methyl-amine], the EC50 was over 1000 nM.

As for `CCCOc1ccc(N(C)c2nc(Cl)nc3ccccc23)cc1` [Example 70, (2-Chloro-quinazolin-4-yl)-(4-propoxy-phenyl)-methyl-amine], the concentration for a half-maximal effect (EC50) came out at 42 nM.

For `COc1ccc(Oc2ncnc3ccccc23)cc1` [Example 71, 4-(4-Methoxy-phenoxy)-quinazoline], the EC50 was determined as 2260 nM.

Take `COc1ccc(N(C)c2nc(CCl)nc3ccccc23)cc1` [Example 73, (2-Chloromethyl-quinazolin-4-yl)-(4-methoxy-phenyl)-methyl-amine]: the 50% effective concentration (EC50) came to 543 nM.

Regarding `COc1ccc(N(C)c2nc(CO)nc3ccccc23)cc1` [Example 76], the EC50 was found to be 8 nM.

Turning to `COc1ccc(N(C)c2nc(CN(C)C)nc3ccccc23)cc1` [Example 77, (2-Dimethylaminomethyl-quinazolin-4-yl)-(4-methoxy-phenyl)-methyl-amine], the EC50 stood at 2110 nM.

Regarding `COc1ccc(N(C)c2nc(-c3ccccc3)nc3ccccc23)cc1` [Example 83, (4-Methoxy-phenyl)-(2-phenyl-quinazolin-4-yl)-methyl-amine], the EC50 came to 168 nM.

In the case of `COc1ccc(N(C)c2nc(Cl)nc3c(Cl)cccc23)cc1` [Example 89, (2,8-Dichloro-quinazolin-4-yl)-(4-methoxy-phenyl)-methyl-amine], the concentration for a half-maximal effect (EC50) was 24 nM.

Consider `CCOc1ccc(Nc2nc(Cl)nc3ccccc23)cc1` [Example 94, (2-Chloro-quinazolin-4-yl)-(4-ethoxy-phenyl)-amine], for which the EC50 is over 10000 nM.

Consider `CCOc1ccc(N(C)c2nc(Cl)nc3ccccc23)cc1` [Example 97, (2-Chloro-quinazolin-4-yl)-(4-ethoxy-phenyl)-methylamine], for which the EC50 worked out at 5 nM.
